In data set [1] the target is Saccharomyces cerevisiae α-glucosidase enzyme (EC. 3. 2. 1. 20) (Saccharomyces cerevisiae, UniProt P38158). The experiment in a line: In vitro α-glucosidase inhibitory activity. It is filed as biochemical.
From the text: In order to conduct the enzyme assay, the Saccharomyces cerevisiae α-glucosidase enzyme (EC. 3. 2. 1. 20) have been used.
Data set [2] is described as follows: Concentrations of precipitation. It is filed as physicochemical. The text has this: Table 1 α-Glucosidase inhibitory activity of compounds 8a–t. | column: Concentrations of precipitation (µM)
The target in data set [3] is α-glucosidase. Set-up: method as in PMID 36782003, PMID 35982225, PMID 36928433, PMID 37188744, doi:10.1039/C5MD00280J. The conditions noted are these: cited from earlier work.
Data set [4] concerns the target α-glucosidase (Saccharomyces cerevisiae, UniProt P38158). Put plainly: Enzyme kinetic study (Lineweaver–Burk plot). The class given is biochemical. An excerpt:
A Lineweaver–Burk plot was generated to recognize the type of inhibition and the Michaelis–Menten constant (Km) value was defined from the plot between the reciprocal of the substrate concentration (1/[S]) and reciprocal of enzyme rate (1/V) over different concentrations of inhibitor.

Where two headings read alike, the source gives them in different places.

Saccharomyces cerevisiae α-glucosidase enzyme (EC. 3. 2. 1. 20), sequence (P38158 whole entry): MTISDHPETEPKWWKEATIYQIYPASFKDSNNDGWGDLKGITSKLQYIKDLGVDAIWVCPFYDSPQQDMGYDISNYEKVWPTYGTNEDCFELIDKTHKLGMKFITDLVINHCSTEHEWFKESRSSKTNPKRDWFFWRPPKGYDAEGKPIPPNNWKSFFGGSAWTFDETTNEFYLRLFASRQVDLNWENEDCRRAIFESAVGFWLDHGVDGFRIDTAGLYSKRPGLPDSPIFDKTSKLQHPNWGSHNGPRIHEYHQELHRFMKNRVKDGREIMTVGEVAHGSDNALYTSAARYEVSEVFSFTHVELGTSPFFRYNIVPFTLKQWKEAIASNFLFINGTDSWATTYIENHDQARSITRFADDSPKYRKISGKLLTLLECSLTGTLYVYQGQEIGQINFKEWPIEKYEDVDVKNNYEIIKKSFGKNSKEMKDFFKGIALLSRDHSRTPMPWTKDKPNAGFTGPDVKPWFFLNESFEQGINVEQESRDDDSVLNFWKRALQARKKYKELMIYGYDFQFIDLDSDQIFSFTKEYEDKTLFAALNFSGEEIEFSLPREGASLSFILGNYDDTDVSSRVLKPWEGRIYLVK
α-glucosidase (Saccharomyces cerevisiae, UniProt P38158), sequence (P38158 whole entry): as above

In turn, `O=C(CSc1nc2ccccc2cc1-c1nc2ccccc2s1)Nc1ccc([N+](=O)[O-])cc1` [Compound 8m, 2-((3-(benzo[d]thiazol-2-yl)quinolin-2-yl)thio)-N-(4-nitrophenyl)acetamide] came in with a melting point of 209 to 211 °C. The half-inhibitory concentration (IC50) in data set [1] came to 198.9 ± 1.5 µM. The Concentrations of precipitation in data set [2] is > 90 µM.
As to “2-((3-(benzo[d]thiazol-2-yl)quinolin-2-yl)thio)-N-(4-methyl-2-nitrophenyl)acetamide [Compound 8n]”, in data set [1] (α-glucosidase, mean ± SD of three independent determinations of triplicate samples, read-out: IC50), the IC50 worked out at 65.9 ± 1 µM. Also, in data set [2], the Concentrations of precipitation was > 90 µM.
In the case of `O=C(CSc1nc2ccccc2cc1-c1nc2ccccc2s1)NCc1ccc(F)cc1` [Compound 8s, 2-((3-(benzo[d]thiazol-2-yl)quinolin-2-yl)thio)-N-(4-fluorobenzyl)acetamide], the melting point is 213 to 215 °C. This molecule yielded an IC50 in data set [1] of 130.1 ± 0.7 µM. In addition, the “Less activity compared to phenyl one” value in data set [1] (α-glucosidase, para-fluoro benzyl less active than para-fluoro phenyl) was “about threefold”. Also, in data set [2], the Concentrations of precipitation was > 90 µM.
For `Cc1ccc(CNC(=O)CSc2nc3ccccc3cc2-c2nc3ccccc3s2)cc1` [Compound 8r, 2-((3-(benzo[d]thiazol-2-yl)quinolin-2-yl)thio)-N-(4-methylbenzyl)acetamide], the melting point lay in the range of 182 to 184 °C. 161.4 ± 0.4 µM corresponded to half-maximal inhibition in data set [1] (IC50). Further, in data set [2], the Concentrations of precipitation is > 90 µM.
In data set [1], `O=C(CSc1nc2ccccc2cc1-c1nc2ccccc2s1)Nc1ccc(Br)cc1` [Compound 8l, 2-((3-(benzo[d]thiazol-2-yl)quinolin-2-yl)thio)-N-(4-bromophenyl)acetamide] had an IC50 of 182.7 ± 1 µM. The Concentrations of precipitation in data set [2] is > 90 µM.
Turning to `O=C(N/N=C/c1ccc(Cl)cc1)c1ccc(-c2nc3ccccc3s2)cc1` [F], the IC50 in data set [3] (Fig. 2, study of compound F with its acarbose standard) is 5.31 ± 0.03 µM.
With `Cc1cccc(C)c1NC(=O)CSc1nc2ccccc2cc1-c1nc2ccccc2s1` [Compound 8f, 2-((3-(benzo[d]thiazol-2-yl)quinolin-2-yl)thio)-N-(2,6-dimethylphenyl)acetamide], in data set [1], the IC50 was 231.6 ± 0.7 µM. In data set [2], the Concentrations of precipitation is > 90 µM.
In data set [1], `Cc1cccc(NC(=O)CSc2nc3ccccc3cc2-c2nc3ccccc3s2)c1C` [Compound 8e, 2-((3-(benzo[d]thiazol-2-yl)quinolin-2-yl)thio)-N-(2,3-dimethylphenyl)acetamide] came in with an IC50 of 130.4 ± 0.5 µM. Besides, the Concentrations of precipitation in data set [2] was > 90 µM.
The molecule `CCc1ccc(NC(=O)CSc2nc3ccccc3cc2-c2nc3ccccc3s2)cc1` [Compound 8d, 2-((3-(benzo[d]thiazol-2-yl)quinolin-2-yl)thio)-N-(4-ethylphenyl)acetamide] yielded an IC50 in data set [1] of 194.4 ± 0.8 µM. Besides, the Concentrations of precipitation in data set [2] was > 90 µM.
Turning to `O=C(CSc1nc2ccccc2cc1-c1nc2ccccc2s1)NCc1ccccc1` [Compound 8q, 2-((3-(benzo[d]thiazol-2-yl)quinolin-2-yl)thio)-N-benzylacetamide], inhibition in data set [1] was half-maximal at 255.6 ± 0.3 µM (IC50). Also, the Concentrations of precipitation in data set [2] is on record as > 90 µM.
The molecule `Cc1ccccc1NC(=O)CSc1nc2ccccc2cc1-c1nc2ccccc2s1` [Compound 8b, 2-((3-(benzo[d]thiazol-2-yl)quinolin-2-yl)thio)-N-(o-tolyl)acetamide] displayed a melting point of 211 to 213 °C. The molecule also yielded an IC50 in data set [1] of 79.9 ± 1.2 µM. Further, the “Potency compared to para-isomer (8c)” value in data set [1] (α-glucosidase, more potent than 8c) is “fivefold”. In data set [2], the Concentrations of precipitation is recorded as > 90 µM.
In the case of `O=C(CSc1nc2ccccc2cc1-c1nc2ccccc2[nH]1)Nc1cccc(Cl)c1` [C], in data set [3] (Fig. 2, study of compound C with its acarbose standard), the IC50 is 3.2 ± 0.3 µM.
Consider `O=C(CSc1nc2ccccc2cc1-c1nc2ccccc2s1)Nc1ccccc1Cl` [Compound 8i, 2-((3-(benzo[d]thiazol-2-yl)quinolin-2-yl)thio)-N-(2-chlorophenyl)acetamide], for which the melting point lay in the range of 221 to 223 °C. Further, the IC50 in data set [1] turned out to be 118 ± 1.4 µM. Besides, in data set [2], the Concentrations of precipitation is reported as > 90 µM.
On to `O=C(N/N=C/c1cc(O)c(O)cc1O)c1ccc(-c2nnc(-c3ccc4ncccc4c3)o2)cc1` [A], for which the concentration for half-maximal inhibition (IC50) in data set [3] (Fig. 2, study of compound A with its acarbose standard) is 2.6 ± 0.01 µM.
For the molecule `O=C(CSc1nc2ccccc2cc1-c1nc2ccccc2s1)Nc1ccc(F)cc1` [Compound 8h, 2-((3-(benzo[d]thiazol-2-yl)quinolin-2-yl)thio)-N-(4-fluorophenyl)acetamide], the half-maximal inhibitory concentration (IC50) in data set [1] is 38.2 ± 0.3 µM. The Concentrations of precipitation in data set [2] is > 90 µM. Besides, in data set [4] (Lineweaver–Burk plot), the Type of inhibition result is given as “non-competitive inhibition”. Further, the Ki in data set [4] (read-out: Ki (inhibition constant)) is 38.2 µM.
Consider `O=C(CSc1nc2ccccc2cc1-c1nc2ccccc2s1)NCCc1ccccc1` [Compound 8t, 2-((3-(benzo[d]thiazol-2-yl)quinolin-2-yl)thio)-N-phenethylacetamide], for which the melting point lay in the range of 225 to 227 °C. The same molecule had a concentration for half-maximal inhibition (IC50) in data set [1] of 222.7 ± 0.9 µM. In addition, the Concentrations of precipitation in data set [2] is reported as > 90 µM.
`O=C(CSc1nc2ccccc2cc1-c1nc2ccccc2s1)Nc1ccccc1F` [Compound 8g, 2-((3-(benzo[d]thiazol-2-yl)quinolin-2-yl)thio)-N-(2-fluorophenyl)acetamide] showed a melting point of 201 to 203 °C. Also, in data set [1], the midpoint of inhibition, the IC50, lay at 198.5 ± 0.9 µM. In data set [2], the Concentrations of precipitation was > 90 µM.
In turn, `O=C(CSc1nc2ccccc2cc1-c1nc2ccccc2s1)Nc1cccc2ccccc12` [Compound 8p, 2-((3-(benzo[d]thiazol-2-yl)quinolin-2-yl)thio)-N-(naphthalen-1-yl)acetamide] showed a melting point of 198 to 200 °C. This molecule also came in with an IC50 in data set [1] of 139.8 ± 1 µM. The Concentrations of precipitation in data set [2] is recorded as > 90 µM.
In turn, `Cc1ccc(NC(=O)CSc2nc3ccccc3cc2-c2nc3ccccc3s2)cc1` [Compound 8c, 2-((3-(benzo[d]thiazol-2-yl)quinolin-2-yl)thio)-N-(p-tolyl)acetamide] yielded an IC50 in data set [1] of 384.3 ± 0.3 µM. Also, the Concentrations of precipitation in data set [2] is recorded as > 90 µM.
Consider `O=C(CSc1nc2ccccc2cc1-c1nc2ccccc2s1)Nc1ccc(Cl)cc1` [Compound 8k, 2-((3-(benzo[d]thiazol-2-yl)quinolin-2-yl)thio)-N-(4-chlorophenyl)acetamide], for which, in data set [1], the midpoint of inhibition, the IC50, lay at 145 ± 1.5 µM. Also, in data set [2], the Concentrations of precipitation is > 90 µM.
The molecule `O=C(CSc1nc2ccccc2cc1-c1nc2ccccc2s1)Nc1cccc(Cl)c1` [Compound 8j, 2-((3-(benzo[d]thiazol-2-yl)quinolin-2-yl)thio)-N-(3-chlorophenyl)acetamide] yielded an IC50 in data set [1] of 111.7 ± 1.1 µM. The Concentrations of precipitation in data set [2] was > 90 µM.
Take `Oc1ccc(-c2nnc(-c3ccc(-c4nc5ccccc5s4)cc3)o2)cc1O` [E]: the IC50 in data set [3] (Fig. 2, study of compound E with its acarbose standard) was 0.5 ± 0.01 µM.
Consider `Cc1cccc(C)c1NC(=O)CSc1nc2ccccc2cc1/C=N/NC(=O)c1ccccc1` [D], for which the half-inhibitory concentration (IC50) in data set [3] (Fig. 2, study of compound D with its acarbose standard) was 14 ± 0.6 µM.
For the molecule `O=C(CSc1nc2ccccc2cc1-c1nc2ccccc2s1)Nc1ccccc1` [Compound 8a, 2-((3-(benzo[d]thiazol-2-yl)quinolin-2-yl)thio)-N-phenylacetamide], half-maximal inhibition in data set [1] (IC50) was put at 299 ± 0.1 µM. The Concentrations of precipitation in data set [2] is recorded as > 90 µM.
`O=C(CSc1nc2ccccc2cc1-c1nc2ccccc2s1)Nc1ncc([N+](=O)[O-])s1` [Compound 8o, 2-((3-(benzo[d]thiazol-2-yl)quinolin-2-yl)thio)-N-(5-nitrothiazol-2-yl)acetamide] yielded a melting point of 199 to 201 °C. The molecule further gave an IC50 in data set [1] of 47.2 ± 0.6 µM. In addition, the Concentrations of precipitation in data set [2] is reported as > 90 µM.

Broadly, the IC50 is the concentration that gives 50% inhibition. Usually melting point stands for the temperature, or range, at which the solid turns liquid. In general, Ki refers to a dissociation constant, usually derived from enzyme kinetics or from competition with a known ligand.

The record behind these values is article PMC10766639, “Synthesis, in vitro potency of inhibition, enzyme kinetics and in silico studies of quinoline-based α-glucosidase inhibitors” (Scientific Reports, 2024).
